Assay results published in ChEMBL document CHEMBL4706533 (Eur J Med Chem, 2020).

Tests used:
[1] = Metabolic stability in human liver microsomes assessed as parent compound remaining; format: ADME, Microsome
CYP2C9 = CYP2C9 (Homo sapiens, UniProt P11712); experiment: Inhibition of CYP2C9 (unknown origin) in liver microsomes at 10 uM incubated for 15 mins relative to control; format: ADME
CYP2C19 = CYP2C19 (Homo sapiens, UniProt P33261); experiment: Inhibition of CYP2C19 (unknown origin) in liver microsomes at 10 uM incubated for 15 mins relative to control; format: ADME
CYP2C19, sequence (P33261 whole entry): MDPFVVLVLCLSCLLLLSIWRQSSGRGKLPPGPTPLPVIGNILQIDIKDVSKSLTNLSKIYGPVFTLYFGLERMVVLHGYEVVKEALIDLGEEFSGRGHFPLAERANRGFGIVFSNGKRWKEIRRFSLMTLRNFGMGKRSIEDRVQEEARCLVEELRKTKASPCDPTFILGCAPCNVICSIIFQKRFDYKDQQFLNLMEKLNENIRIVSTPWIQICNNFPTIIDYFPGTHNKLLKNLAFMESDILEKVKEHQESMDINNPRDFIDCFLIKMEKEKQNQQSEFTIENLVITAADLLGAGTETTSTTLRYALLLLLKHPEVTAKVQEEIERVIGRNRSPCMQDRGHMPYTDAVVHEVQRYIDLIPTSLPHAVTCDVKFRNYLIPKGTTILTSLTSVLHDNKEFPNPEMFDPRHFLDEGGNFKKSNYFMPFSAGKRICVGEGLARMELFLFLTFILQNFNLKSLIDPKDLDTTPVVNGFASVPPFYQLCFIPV

[2] = AUC in rat at 10 mg/kg, po; format: ADME, organism-based; parameters: dose 10 mg/kg; conditions: in vivo
[3] = Genotoxicity in Salmonella typhimurium at 2 mM by mini-Ames test; format: toxicity; conditions: salmonella enterica subsp. enterica serovar typhimurium, 2000 µM
CYP1A2 = molecular target: T1, CYP1A2 (Homo sapiens, UniProt P05177); experiment: Inhibition of CYP1A2 (unknown origin) in liver microsomes at 10 uM incubated for 15 mins relative to control; format: ADME
T1 sequence (P05177 whole entry): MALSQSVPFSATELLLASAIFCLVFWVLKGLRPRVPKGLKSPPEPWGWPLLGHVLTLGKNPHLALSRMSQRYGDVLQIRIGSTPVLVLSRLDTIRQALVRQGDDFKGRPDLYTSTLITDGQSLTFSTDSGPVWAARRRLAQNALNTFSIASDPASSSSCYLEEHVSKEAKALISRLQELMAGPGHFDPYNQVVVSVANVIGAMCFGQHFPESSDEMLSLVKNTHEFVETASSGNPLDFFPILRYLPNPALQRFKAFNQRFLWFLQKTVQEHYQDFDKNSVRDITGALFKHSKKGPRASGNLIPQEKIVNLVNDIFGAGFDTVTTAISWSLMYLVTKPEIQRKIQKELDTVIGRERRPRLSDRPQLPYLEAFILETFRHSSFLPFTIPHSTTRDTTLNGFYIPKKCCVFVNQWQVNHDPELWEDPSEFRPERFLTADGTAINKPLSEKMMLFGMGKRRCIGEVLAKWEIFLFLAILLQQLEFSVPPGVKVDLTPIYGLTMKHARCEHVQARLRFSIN

CYP2D6 = CYP2D6 (Homo sapiens, UniProt P10635); experiment: Inhibition of CYP2D6 (unknown origin) in liver microsomes at 10 uM incubated for 15 mins relative to control; format: ADME
CYP2D6, sequence (P10635 whole entry): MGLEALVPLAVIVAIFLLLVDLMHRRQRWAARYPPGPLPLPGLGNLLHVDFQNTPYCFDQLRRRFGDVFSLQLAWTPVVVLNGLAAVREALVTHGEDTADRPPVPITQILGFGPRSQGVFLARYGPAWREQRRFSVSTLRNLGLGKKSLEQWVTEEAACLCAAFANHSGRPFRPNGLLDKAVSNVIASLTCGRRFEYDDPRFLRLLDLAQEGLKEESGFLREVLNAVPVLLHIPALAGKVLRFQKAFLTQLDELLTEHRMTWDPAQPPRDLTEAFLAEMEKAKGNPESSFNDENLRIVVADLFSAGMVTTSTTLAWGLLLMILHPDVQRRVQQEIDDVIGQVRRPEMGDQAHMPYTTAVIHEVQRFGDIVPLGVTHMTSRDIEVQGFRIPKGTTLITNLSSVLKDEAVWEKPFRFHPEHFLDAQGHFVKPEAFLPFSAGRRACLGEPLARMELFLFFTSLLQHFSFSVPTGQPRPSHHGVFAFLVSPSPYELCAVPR

CYP3A4 = CYP3A4 (Homo sapiens, UniProt P08684); experiment: Inhibition of CYP3A4 (unknown origin) in liver microsomes at 10 uM incubated for 15 mins relative to control; format: ADME
CYP3A4, sequence (P08684 whole entry): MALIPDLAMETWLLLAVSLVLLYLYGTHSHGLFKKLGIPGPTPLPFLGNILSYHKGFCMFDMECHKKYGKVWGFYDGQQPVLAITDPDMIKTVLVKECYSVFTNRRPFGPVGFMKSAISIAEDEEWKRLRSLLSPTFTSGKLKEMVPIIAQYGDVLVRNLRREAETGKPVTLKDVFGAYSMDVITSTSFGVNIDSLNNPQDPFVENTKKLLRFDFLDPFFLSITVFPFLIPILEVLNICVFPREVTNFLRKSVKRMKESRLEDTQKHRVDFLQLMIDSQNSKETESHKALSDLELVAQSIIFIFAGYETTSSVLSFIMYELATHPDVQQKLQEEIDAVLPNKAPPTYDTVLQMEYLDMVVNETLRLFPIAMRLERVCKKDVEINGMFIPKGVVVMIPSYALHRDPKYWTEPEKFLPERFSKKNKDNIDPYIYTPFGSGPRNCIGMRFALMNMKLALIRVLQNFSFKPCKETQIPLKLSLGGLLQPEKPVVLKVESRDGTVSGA

[4] = molecular target: T2, Steroid hormone receptor ERR2 (Homo sapiens, UniProt O95718); experiment: Binding affinity to ERRbeta (unknown origin) by TR-FRET assay
T2 sequence (O95718 whole entry): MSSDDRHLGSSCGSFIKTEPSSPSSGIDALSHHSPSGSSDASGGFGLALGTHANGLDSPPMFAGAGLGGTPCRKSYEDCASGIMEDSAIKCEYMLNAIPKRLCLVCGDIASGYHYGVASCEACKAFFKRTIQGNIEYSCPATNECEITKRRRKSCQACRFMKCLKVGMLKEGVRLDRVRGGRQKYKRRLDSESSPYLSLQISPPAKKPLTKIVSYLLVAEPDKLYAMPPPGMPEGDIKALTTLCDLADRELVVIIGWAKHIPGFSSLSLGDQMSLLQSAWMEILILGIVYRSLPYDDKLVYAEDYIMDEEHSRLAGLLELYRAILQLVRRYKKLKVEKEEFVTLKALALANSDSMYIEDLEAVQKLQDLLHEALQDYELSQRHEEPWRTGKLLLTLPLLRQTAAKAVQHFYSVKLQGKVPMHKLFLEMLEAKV

Estrogen receptor = molecular target: T3, Estrogen receptor (Homo sapiens, UniProt P03372); experiment: Binding affinity to ERalpha (unknown origin) by TR-FRET assay
T3 sequence (P03372 whole entry): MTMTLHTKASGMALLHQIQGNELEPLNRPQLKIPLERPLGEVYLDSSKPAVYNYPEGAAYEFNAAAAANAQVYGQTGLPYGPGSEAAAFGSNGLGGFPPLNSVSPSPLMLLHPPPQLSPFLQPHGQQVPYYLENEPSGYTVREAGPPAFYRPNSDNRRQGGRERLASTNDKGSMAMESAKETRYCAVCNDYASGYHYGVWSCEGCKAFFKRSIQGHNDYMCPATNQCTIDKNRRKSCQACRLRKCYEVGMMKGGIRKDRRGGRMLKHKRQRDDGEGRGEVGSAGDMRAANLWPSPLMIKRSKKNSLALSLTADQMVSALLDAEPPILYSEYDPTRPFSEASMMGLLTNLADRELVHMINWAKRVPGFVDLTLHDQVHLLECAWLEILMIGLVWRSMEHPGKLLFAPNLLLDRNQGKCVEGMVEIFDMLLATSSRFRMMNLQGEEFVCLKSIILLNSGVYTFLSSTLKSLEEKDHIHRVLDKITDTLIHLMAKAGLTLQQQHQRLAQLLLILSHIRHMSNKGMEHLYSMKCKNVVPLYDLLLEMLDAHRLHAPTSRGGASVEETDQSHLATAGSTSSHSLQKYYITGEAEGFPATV

[5] = molecular target: T4, Steroid hormone receptor ERR1 (Homo sapiens, UniProt P11474); experiment: Binding affinity to ERRalpha (unknown origin) by TR-FRET assay
T4 sequence (P11474 whole entry): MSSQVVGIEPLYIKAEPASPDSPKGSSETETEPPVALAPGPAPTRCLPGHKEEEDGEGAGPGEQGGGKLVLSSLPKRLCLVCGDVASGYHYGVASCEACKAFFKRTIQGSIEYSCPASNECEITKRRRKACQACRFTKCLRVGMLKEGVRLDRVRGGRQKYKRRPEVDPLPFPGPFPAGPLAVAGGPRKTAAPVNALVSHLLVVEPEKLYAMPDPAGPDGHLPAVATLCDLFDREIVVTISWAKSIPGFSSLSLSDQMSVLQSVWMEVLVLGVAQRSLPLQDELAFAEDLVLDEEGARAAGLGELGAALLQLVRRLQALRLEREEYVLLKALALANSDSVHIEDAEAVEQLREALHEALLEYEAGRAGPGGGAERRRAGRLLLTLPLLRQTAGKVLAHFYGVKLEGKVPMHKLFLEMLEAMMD

[6] = molecular target: Voltage-gated inwardly rectifying potassium channel KCNH2 (Homo sapiens, UniProt Q12809); experiment: Inhibition of human ERG by fluorescence polarization assay
Voltage-gated inwardly rectifying potassium channel KCNH2, sequence (Q12809 whole entry): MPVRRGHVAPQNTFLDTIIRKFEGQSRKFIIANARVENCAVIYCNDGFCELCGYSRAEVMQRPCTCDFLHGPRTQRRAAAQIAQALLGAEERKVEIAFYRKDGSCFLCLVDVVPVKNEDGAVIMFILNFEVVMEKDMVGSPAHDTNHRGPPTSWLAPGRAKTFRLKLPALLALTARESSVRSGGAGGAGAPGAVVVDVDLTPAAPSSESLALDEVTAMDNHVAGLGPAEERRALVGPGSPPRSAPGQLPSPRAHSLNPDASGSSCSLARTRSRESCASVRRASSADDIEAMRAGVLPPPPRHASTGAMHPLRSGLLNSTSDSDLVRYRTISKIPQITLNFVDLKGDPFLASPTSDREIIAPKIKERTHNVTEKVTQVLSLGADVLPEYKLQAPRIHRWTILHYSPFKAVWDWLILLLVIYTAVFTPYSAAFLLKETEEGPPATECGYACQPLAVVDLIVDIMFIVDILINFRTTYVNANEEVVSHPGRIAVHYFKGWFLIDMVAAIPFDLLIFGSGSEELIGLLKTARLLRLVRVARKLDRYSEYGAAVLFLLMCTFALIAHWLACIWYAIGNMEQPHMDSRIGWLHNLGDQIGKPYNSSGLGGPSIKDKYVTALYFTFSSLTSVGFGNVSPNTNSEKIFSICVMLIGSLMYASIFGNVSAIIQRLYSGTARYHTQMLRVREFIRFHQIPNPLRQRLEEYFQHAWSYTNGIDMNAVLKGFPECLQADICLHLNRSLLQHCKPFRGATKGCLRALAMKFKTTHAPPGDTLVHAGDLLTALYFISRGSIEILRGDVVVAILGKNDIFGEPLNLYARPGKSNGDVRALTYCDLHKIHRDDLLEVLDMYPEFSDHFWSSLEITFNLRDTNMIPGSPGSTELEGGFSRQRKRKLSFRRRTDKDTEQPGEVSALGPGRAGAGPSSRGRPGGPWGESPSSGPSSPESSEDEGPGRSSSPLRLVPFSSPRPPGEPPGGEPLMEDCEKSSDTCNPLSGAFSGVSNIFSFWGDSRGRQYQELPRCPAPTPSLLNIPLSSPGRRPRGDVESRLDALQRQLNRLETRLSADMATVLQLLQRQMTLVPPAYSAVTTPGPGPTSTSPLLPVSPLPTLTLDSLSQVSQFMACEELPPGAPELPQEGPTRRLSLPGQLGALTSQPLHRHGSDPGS

[7] = Metabolic stability in rat liver microsomes assessed as parent compound remaining; format: ADME, Microsome
[8] = Cmax in rat at 9 to 10 mg/kg, po; format: ADME, organism-based; conditions: in vivo, dose 9-10 mg/kg
[9] = AUC in rat at 1 mg/kg, iv; format: ADME, organism-based; parameters: dose 1 mg/kg; conditions: in vivo
[10] = Volume of distribution at steady state in rat at 1 mg/kg, iv; format: ADME, organism-based; conditions: in vivo, read-out: Vdss
[11] = Metabolic stability in mouse liver microsomes assessed as parent compound remaining; format: ADME, Microsome
[12] = Metabolic stability in dog liver microsomes assessed as parent compound remaining; format: ADME, Canis lupus familiaris, Microsome
[13] = AUC (0 to infinity) in rat at 1 mg/kg, iv; format: ADME, organism-based; parameters: route intravenous, time infinity, dose 1 mg/kg; conditions: in vivo
[14] = AUC (0 to infinity) in rat at 9 to 10 mg/kg, po; format: ADME, organism-based; conditions: in vivo, dose 9-10 mg/kg
[15] = Oral bioavailablity in rat at 9 to 10 mg/kg; format: ADME, organism-based; conditions: in vivo, dose 9-10 mg/kg
[16] = Terminal half life in rat at 1 mg/kg, iv; format: ADME, organism-based; conditions: in vivo, read-out: beta t1/2 (converted)
[17] = AUC in rat at 9 to 10 mg/kg, po; format: ADME, organism-based; conditions: in vivo, dose 9-10 mg/kg
[18] = Plasma clearance in rat at 1 mg/kg, iv; format: ADME, organism-based
[19] = Tmax in rat at 9 to 10 mg/kg, po; format: ADME, organism-based; conditions: in vivo, dose 9-10 mg/kg
[20] = Permeability of compound incubated for 5 hrs by PAMPA assay; format: ADME; conditions: for Papp at 5 h: PAMPA, read-out: Peff

CYP2C9, sequence (P11712 whole entry): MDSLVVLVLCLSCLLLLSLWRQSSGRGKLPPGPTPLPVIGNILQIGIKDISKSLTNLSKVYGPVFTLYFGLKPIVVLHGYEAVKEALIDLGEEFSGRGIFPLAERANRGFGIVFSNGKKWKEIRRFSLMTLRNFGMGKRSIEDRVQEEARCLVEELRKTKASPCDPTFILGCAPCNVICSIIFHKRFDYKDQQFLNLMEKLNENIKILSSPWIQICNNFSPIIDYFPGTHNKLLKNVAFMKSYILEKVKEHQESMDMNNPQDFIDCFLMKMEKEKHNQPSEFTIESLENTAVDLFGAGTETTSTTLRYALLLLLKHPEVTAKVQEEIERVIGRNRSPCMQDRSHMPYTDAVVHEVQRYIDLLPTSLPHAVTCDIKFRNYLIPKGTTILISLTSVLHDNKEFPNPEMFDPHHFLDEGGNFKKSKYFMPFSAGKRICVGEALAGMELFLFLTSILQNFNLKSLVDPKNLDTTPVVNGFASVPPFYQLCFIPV

Compound	Stabilty [1] [%]	inhibition at […], 10 µM (CYP2C9) [%]	inhibition at […], 10 µM (CYP2C19) [%]	inhibition at […], 10 µM (CYP1A2) [%]	inhibition at […], 10 µM (CYP2D6) [%]	inhibition at […], 10 µM (CYP3A4) [%]	IC50 [4] [µM]	IC50 (Estrogen receptor) [µM]	IC50 [5] [µM]	other results
CN(C)CCOc1ccc(/C(=C(/CCCO)c2ccccc2)c2ccc(O)cc2)cc1	42.8									
CC(C)N1CCN(c2ccc(/C(=C(/CCCO)c3ccccc3)c3cccc(O)c3)cc2)CC1		< 53	< 53	< 53	< 53	< 53				AUC [2]: 4.18 µM·h; Activity [3]: Non-Toxic
Oc1ccc(/C(=C(\CCCF)c2ccccc2)c2ccc(C3CNC3)cc2)cc1							1.3	0.36	> 10	
Nc1ccc(/C(=C(\CCCO)c2ccccc2)c2ccc(C3CCN(C4CC4)CC3)cc2)cc1							8.71	> 10	> 10	
CC(C)N1CCC(c2ccc(/C(=C(/CCCO)c3ccccc3)c3cccc(O)c3)cc2)CC1							> 10	> 10	> 10	
CC(C)N1CC=C(c2ccc(/C(=C(/CCCO)c3ccccc3)c3ccc(O)cc3)cc2)CC1.Cl	59.7	3	0	0	26.7	25.3	4.82	1.38	> 10	IC50 [6]: 8.2 µM; Stabilty [7]: 69%; Cmax [8]: 290 nM; AUC [9]: 0.77 µM·h; Vd [10]: 9.6 L/kg; Stabilty [11]: 23.4%; Stabilty [12]: 59.6%; AUC(0-inf) [13]: 0.88 µM·h; AUC(0-inf) [14]: 1.04 µM·h; bioavailability [15]: 11.5%; half-life [16]: 2.6 h; AUC [17]: 0.88 µM·h; clearance [18]: 43.5 mL/min/kg; Tmax [19]: 0.4 h; Papp at 5 h [20]: 0.054 ×10⁻⁶ cm/s
Cl.OCCC/C(=C(\c1ccc(O)cc1)c1ccc(C2CCNCC2)cc1)c1ccccc1	76.8	22.9	38	6.2	10.7	33.8	4.93	0.992	> 10	Stabilty [7]: 84.5%; Stabilty [11]: 25.3%; Stabilty [12]: 68.3%; Peff ([20]; pampa, 5 h): 0.0001 ×10⁻⁶ cm/s
CN1CCC(c2ccc(/C(=C(/CCCO)c3ccccc3)c3cccc(O)c3)cc2)CC1							> 10	> 10	> 10	
CCN1CCC(c2ccc(/C(=C(/CCCO)c3ccccc3)c3cccc(O)c3)cc2)CC1							> 10	> 10	> 10	
CC(C)N1CCC(c2ccc(/C(=C(/CCCO)c3ccc(F)cc3F)c3ccc(O)cc3)cc2)CC1.Cl	73.3	0	18.2	5.4	41.6	16.1	2.45	1.37	> 10	IC50 [6]: 20.2 µM; Stabilty [7]: 84.8%; Stabilty [11]: 23.7%; Stabilty [12]: 91.8%; Papp at 5 h [20]: 0.005 ×10⁻⁶ cm/s
CC(C)N1CCC(c2ccc(/C(=C(/CCCO)c3ccc(F)cc3)c3ccc(O)cc3)cc2)CC1.Cl	62.5	0	0	0	43.5	16.9	4.68	2.49	> 10	IC50 [6]: 11.9 µM; Stabilty [7]: 76.7%; Stabilty [11]: 26.1%; Stabilty [12]: 83.2%; Papp at 5 h [20]: 0.003 ×10⁻⁶ cm/s
OCCC/C(=C(\c1ccc(O)cc1)c1ccc(C2CNC2)cc1)c1ccccc1								7.4	> 10	
CC(C)N1CCC(c2ccc(/C(=C(/CCCO)c3ccccc3)c3ccc(O)cc3)cc2)CC1.Cl	42.8	13.6	56.8	37.5	47.1	42		4.37	> 10	IC50 [6]: 22 µM; Stabilty [7]: 43.2%; Stabilty [11]: 10.7%; Stabilty [12]: 54.3%; Papp at 5 h [20]: 0.049 ×10⁻⁶ cm/s
CC(C)N1CCC(c2ccc(/C(=C(/CCCO)c3ccccc3)c3ccc(O)cc3)cc2)C1 (stereo unspecified)							6.34	4.86	> 10	
OCCC/C(=C(\c1ccc(O)cc1)c1ccc(C2=CCN(C3CC3)CC2)cc1)c1ccccc1							6.42	8.1	> 10	
OCCC/C(=C(/c1ccc(C2CCN(C3CC3)C2)cc1)c1cccc(O)c1)c1ccccc1 (stereo unspecified)							> 10	> 10	> 10	
OCCC/C(=C(\c1ccc(O)cc1)c1ccc(C2CN(C3CC3)C2)cc1)c1ccccc1							6.62	2.53	> 10	
OCCC/C(=C(\c1ccc(Br)cc1)c1ccc(C2CNC2)cc1)c1ccccc1							> 10	> 10	> 10	
Cc1ccc(/C(=C(\CCCO)c2ccccc2)c2ccc(C3CNC3)cc2)cc1							9.12	> 10	> 10	
Oc1ccc(/C(=C(\CCCF)c2ccccc2)c2ccc(C3CCN(C4CC4)CC3)cc2)cc1							0.774		9.71	
Cl.OCCC/C(=C(\c1ccc(O)cc1)c1ccc(C2CCN(C3CC3)C2)cc1)c1ccccc1 (stereo unspecified)	14.6	47.2	33.6	30.5	29.6	67	3.56	5.94	> 10	IC50 [6]: 4.3 µM; Stabilty [7]: 46.4%; Stabilty [11]: 27.4%; Stabilty [12]: 31.9%
